From US11464762B2, “Carcinogenesis inhibitor” (NATIONAL CANCER CENTER, priority 2017, dated 2022) come the findings set out here.

Series [1] can be described thus: Evaluation of safety, repeated oral administration to healthy male adults. Type of series: in vivo, human. The note with it: oral 400 mg single dose, 17 administrations over seven days, six cases. Here is the method: Eight healthy male adults (21 to 24 years age) (consisting of six cases being administered with the test substance and two cases being administered with the placebo) were used as the subjects and the present compound was orally administered repeatedly to evaluate the safety. A test substance (Compound 21) was orally administered in the single dose of 400 mg in such a manner that, on the first and the seventh day of the administration, once-daily in the morning on an empty stomach and, on the second to the sixth days of the administration, thrice-daily on an empty stomach (at 09:00, 14:00 and 19:00) together with 150 mL of water each (17 administrations in total).

Series [2] deals with cyclin D1. The experiment in a line: Expression level of cell proliferation-associated factor mRNA (realtime-PCR), cyclin D1. Type of series: in vivo, mouse. The note with it: non-polyp part of small intestine mucosa, Min mice, 1000 ppm in feed, GAPDH-normalised, control group = 1.00, n=3. Here is the method:
(§1) (1) mRNA Extraction from the Intestinal Polyp Part and Non-Polyp Part, and cDNA Synthesis
(§2) TRIsol (Invitrogen) (500 μL) was added to a polyp part and a non-polyp part of small intestine mucosa of mouse of the control group and the 1000 ppm test substance-administering group scraped in Test Example 1. After 100 μL of chloroform was added thereto and mixed therewith, the mixture was centrifuged (12000 rpm for 2 minutes) and the supernatant liquid was recovered therefrom. The recovered supernatant liquid was added 250 μL of ethanol and RNA was extracted therefrom and purified using a column (QIAGEN).
(§3) After DNAse (Invitrogen) treatment, cDNA was prepared from 1 μg of the total RNA using High-Capacity cDNA Reverse Transcription Kits (Applied Biosystems). […]
(§4) Expression level of mRNA of the cell proliferation-associated factors [c-Myc, CDK4 and cyclin D1] was measured by a realtime-PCR method using the cDNA being synthesized from the total RNA extracted in the above (1). With regard to the polyp part, the mRNA expression level only of c-Myc was measured.
(§5) As to the PCR primers for each of the cell proliferation-associated factors, there were used c-Myc [Forward: […] […] Each of the resulted measured values was divided by the measured value of the glyceraldehyde-3-phosphate dehydrogenase (GAPDH) gene which was an internal standard whereupon the relative values were calculated. […]

Series [3] is described as follows: Feed and body weight of Min mice during the administration period. Type of series: in vivo, mouse. The note with it: 500 and 1000 ppm in feed for eight weeks versus control group. Here is the method: (§6) The experimental animals were randomly classified into a control group, a group to which 500 ppm of a test substance was administered and a group to which 1000 ppm of a test substance was administered. In each group, 10 mice per group were organized in such a manner that average body weight in the group became same. The control group was administered with a basic feed only and each of the 500 ppm test substance-administering group and the 1000 ppm test substance-administering group was administered with a mixed feed of a test substance (Compound 21) in 500 and 1000 ppm concentrations, respectively for eight weeks.

Series [4] relates to c-Myc. The experiment in a line: Expression level of cell proliferation-associated factor mRNA (realtime-PCR), c-Myc. Type of series: in vivo, mouse. Particulars: Min mice, 1000 ppm in feed, GAPDH-normalised, control group = 1.00, n=3. Here is the method: as §1, §2, §3, §4, §5
The test system of series [5] is CDK4. Description: Expression level of cell proliferation-associated factor mRNA (realtime-PCR), CDK4. Particulars: non-polyp part of small intestine mucosa, Min mice, 1000 ppm in feed, GAPDH-normalised, control group = 1.00, n=3. Type of series: in vivo, mouse. Here is the method: as §1, §2, §3, §4, §5
Series [6] relates to PCNA antibody-positive cells in polyp part of mouse small intestine mucosa. Description: Cell proliferation ability in polyp part of intestinal mucosa (PCNA immunostaining). Type of series: in vivo. Particulars: Min mice, 1000 ppm in feed, n = 14 (control group 71.26). How it is done:
The formalin-fixed slices embedded in paraffin prepared from the polyp part of mouse small intestine mucosa of the control group and of the 1000 ppm test substance-administering group being excised in Test Example 1 were dipped in xylene for five minutes×three times for the purpose of deparaffinization and were dipped in 99.5% alcohol for five minutes×three times to enhance the hydrophilicity followed by dipping into distilled water for 10 minutes. After that, the slices were dipped into a methanol solution containing 0.3% of hydrogen peroxide to conduct a deactivation treatment for the endogenous peroxidase. Further, 1 mL of a 0.3% Triton [Registered trade mark] X-100 solution containing 2% of horse serum (a phosphate-buffered saline (PBS) containing 0.3% of Triton) followed by blocking for 30 minutes.
To the slices was added an anti-mouse proliferating cell nuclear antigen (PCNA) antibody (Calbiochem [Registered trade mark]) diluted to an extent of 100 times and a primary antibody response was conducted overnight at 4° C. […] The ratio of the PCNA antibody-positive cell numbers to the total cell numbers in the microscopic field in each group was also calculated. […]

For series [7], the system named is intestinal polyps of C57BL/6-Apc^Min/+ mouse (Min mouse). The experiment in a line: Evaluation of intestinal polyp formation in Min mice. Type of series: in vivo. The note with it: for Number of intestinal polyp, colon / Number of intestinal polyp, small intestine distal segment / Number of intestinal polyp, small intestine middle segment / Number of intestinal polyp, small intestine proximal segment / Number of intestinal polyp, total: mean.
Source text: (1) Grouping of Experimental Animals and Administration of a Test Substance
As to an experimental animal, there was used a C57BL/6-Apc^Min/+ mouse (Min mouse) which was a familial adenomatosis coli model. The Min mouse is an Apc (adenomatous polyoisis coli) mutant mouse and an increase in polyp numbers is noted therein with time. It has been also known that the Min mouse is occurred with dyslipidemia in a state of highly oxidative stress. 5-week-old male Min mice were bred and acclimatized in a plastic cage (235×325×170 H mm) (six mice in maximum in a cage) in a laboratory where the temperature, the humidity and the brightness/darkness cycle were set at 24±2° C., 55% and 12 hours, respectively. In the meanwhile, they were freely ingested with filtered water and basic feed (MN-76A, CLEA Japan Inc.).
as §6
(2) Measurement of Numbers of Polyps in the Intestinal Tract
The mice in each group were killed under anesthetization at 13 weeks old and, after laparotomy, the intestinal tract was excised and fixed with formalin. Small intestine was divided into proximal segment (the segment in about 4 cm length from pylorus), middle segment and distal segment, then the polyp numbers in the four segments including colon were counted under a stereomicroscope and the mean value in each group was calculated.

The mark [8] stands for this setting: 500 ppm in feed for eight weeks.
Where [9] appears, read: 500 ppm in feed for eight weeks, n = 9.
Setting [10] is: 1000 ppm in feed for eight weeks.
The mark [11] stands for this setting: 1000 ppm in feed for eight weeks, n = 8.

SMILES strings stand for the structures.

For the compound `CN1C(=O)NC(=O)C1O` (stereo not shown) [Compound 21, 5-Hydroxy-1-methylhydantoin], in series [1], the “Abnormal variation in blood pressure, pulse rate, body temperature, hematological test, blood biochemical test and urinary test” value is given as “no abnormal variation suspected to be related to the present compound”; the “Clinical symptoms suspected to be related to the compound” value is recorded as “no clinical symptom suspected to be related to the present compound”. Besides, the “Ratio of expression quantity of cell proliferation-associated factor Cyclin D1” value in series [2] came out at 0.27. Besides, the “Difference in the feed and in the body weight among the groups during the administration period” value in series [3] was “No significant difference”. For the same compound, the “Ratio of expression quantity of cell proliferation-associated factor c-Myc” value in series [4] (non-polyp part of small intestine mucosa) is 0.25. The “Ratio of expression quantity of cell proliferation-associated factor c-Myc” value in series [4] (polyp part of small intestine mucosa) stood at 0.39. For the same compound, the “Ratio of expression quantity of cell proliferation-associated factor CDK4” value in series [5] came to 0.47. Also, the “Ratio of the PCNA antibody-positive cell numbers to the total cell numbers” value in series [6] is reported as 58.40%. In series [7] (setting [8]), the “Decrease of polyp numbers in the middle segment of small intestine as compared with the control group” value is recorded as “about 37%” and the “Decrease of total numbers of polyps as compared with the control group” value was “about 17%”. In addition, in series [7] (setting [9]), the “Number of intestinal polyp, colon” value was 1.00; the “Number of intestinal polyp, small intestine distal segment” value worked out at 27.00; the “Number of intestinal polyp, small intestine middle segment” value is 7.33; the “Number of intestinal polyp, small intestine proximal segment” value is 3.89. Also, the “Number of intestinal polyp, total” value in series [7] (setting [9]) is 39.22. In series [7] (setting [10]), the “Decrease of polyp numbers in the middle segment of small intestine as compared with the control group” value was around 29% and the “Decrease of total numbers of polyps as compared with the control group” value is “about 17%”. In addition, in series [7] (setting [11]), the “Number of intestinal polyp, colon” value is on record as 0.38; the “Number of intestinal polyp, small intestine distal segment” value is 25.63; the “Number of intestinal polyp, small intestine middle segment” value came out at 8.25; the “Number of intestinal polyp, small intestine proximal segment” value is given as 5.13. In addition, in series [7] (setting [11]), the “Number of intestinal polyp, total” value was determined as 39.38.
